Data taken from ChEMBL document CHEMBL3217488, “Preliminary in vitro evaluation of N-(benzofuroxan-5-yl)methylene benzohydrazide derivatives as potential anti-Trypanosoma cruzi agents” (Medchemcomm, 2012).

Legend:
Trypanosoma cruzi [1] = assay: Antitrypanosomal activity against epimastigote stage of Trypanosoma cruzi Y assessed as parasite growth inhibition at 10 ug/mL after 72 hrs by spectrophotometric analysis relative to control; format: functional; details: read-out: GI
Trypanosoma cruzi [2] = assay: Antitrypanosomal activity against epimastigote stage of Trypanosoma cruzi Y assessed as parasite growth inhibition at 20 ug/mL after 72 hrs by spectrophotometric analysis relative to control; format: functional; details: read-out: GI
Trypanosoma cruzi [3] = assay: Antitrypanosomal activity against epimastigote stage of Trypanosoma cruzi Y assessed as parasite growth inhibition at 50 ug/mL after 72 hrs by spectrophotometric analysis relative to control; format: functional; details: read-out: GI
[4] = Genotoxicity in human bronchial epithelial cells assessed as increase of micronucleated cells at 50 ug/mL after 24 hrs by acridine orange staining-based fluorescence microscopic analysis; format: toxicity; details: epithelial cell

O=C(N/N=C/c1ccc2c(c1)no[n+]2[O-])c1ccc(Cl)c(Cl)c1
inhibition of growth at 10 µg/mL (Trypanosoma cruzi [1]): 51% | inhibition of growth at 20 µg/mL (Trypanosoma cruzi [2]): 81% | inhibition of growth at 50 µg/mL (Trypanosoma cruzi [3]): 75%

O=C(N/N=C/c1ccc2c(c1)no[n+]2[O-])c1ccc([N+](=O)[O-])c(C(F)(F)F)c1
inhibition of growth at 10 µg/mL (Trypanosoma cruzi [1]): 54% | inhibition of growth at 20 µg/mL (Trypanosoma cruzi [2]): 82% | inhibition of growth at 50 µg/mL (Trypanosoma cruzi [3]): 82%

O=C(N/N=C/c1ccc2c(c1)no[n+]2[O-])c1ccc(Cl)cc1Cl
inhibition of growth at 10 µg/mL (Trypanosoma cruzi [1]): 42% | inhibition of growth at 20 µg/mL (Trypanosoma cruzi [2]): 72% | inhibition of growth at 50 µg/mL (Trypanosoma cruzi [3]): 89%

O=C(N/N=C/c1ccc2c(c1)no[n+]2[O-])c1ccc([N+](=O)[O-])cc1
inhibition of growth at 10 µg/mL (Trypanosoma cruzi [1]): 13% | inhibition of growth at 20 µg/mL (Trypanosoma cruzi [2]): 73% | inhibition of growth at 50 µg/mL (Trypanosoma cruzi [3]): 73%

CCc1ccc(C(=O)N/N=C/c2ccc3c(c2)no[n+]3[O-])cc1
inhibition of growth at 10 µg/mL (Trypanosoma cruzi [1]): 47% | inhibition of growth at 20 µg/mL (Trypanosoma cruzi [2]): 76% | inhibition of growth at 50 µg/mL (Trypanosoma cruzi [3]): 85%

CCOc1ccc(C(=O)N/N=C/c2ccc3c(c2)no[n+]3[O-])cc1
inhibition of growth at 10 µg/mL (Trypanosoma cruzi [1]): 32% | inhibition of growth at 20 µg/mL (Trypanosoma cruzi [2]): 68% | inhibition of growth at 50 µg/mL (Trypanosoma cruzi [3]): 66%

Cc1ccc(C(=O)N/N=C/c2ccc3c(c2)no[n+]3[O-])cc1
inhibition of growth at 10 µg/mL (Trypanosoma cruzi [1]): 34% | inhibition of growth at 20 µg/mL (Trypanosoma cruzi [2]): 62% | inhibition of growth at 50 µg/mL (Trypanosoma cruzi [3]): 76%

O=C(N/N=C/c1ccc2c(c1)no[n+]2[O-])c1ccc(Br)cc1
inhibition of growth at 10 µg/mL (Trypanosoma cruzi [1]): 44% | inhibition of growth at 20 µg/mL (Trypanosoma cruzi [2]): 76% | inhibition of growth at 50 µg/mL (Trypanosoma cruzi [3]): 58%

O=C(N/N=C/c1ccc2c(c1)no[n+]2[O-])c1ccc(Cl)cc1
inhibition of growth at 10 µg/mL (Trypanosoma cruzi [1]): 54% | inhibition of growth at 20 µg/mL (Trypanosoma cruzi [2]): 83% | inhibition of growth at 50 µg/mL (Trypanosoma cruzi [3]): 62% | Activity [4]: Non-toxic

CC(=O)c1ccc(C(=O)N/N=C/c2ccc3c(c2)no[n+]3[O-])cc1
inhibition of growth at 10 µg/mL (Trypanosoma cruzi [1]): 14% | inhibition of growth at 20 µg/mL (Trypanosoma cruzi [2]): 34% | inhibition of growth at 50 µg/mL (Trypanosoma cruzi [3]): 83%

O=C(N/N=C/c1ccc2c(c1)no[n+]2[O-])c1ccccc1
inhibition of growth at 10 µg/mL (Trypanosoma cruzi [1]): 46% | inhibition of growth at 20 µg/mL (Trypanosoma cruzi [2]): 82% | inhibition of growth at 50 µg/mL (Trypanosoma cruzi [3]): 95% | Activity [4]: Non-toxic

Nc1ccc(C(=O)N/N=C/c2ccc3c(c2)no[n+]3[O-])cc1
inhibition of growth at 10 µg/mL (Trypanosoma cruzi [1]): 7% | inhibition of growth at 20 µg/mL (Trypanosoma cruzi [2]): 24% | inhibition of growth at 50 µg/mL (Trypanosoma cruzi [3]): 42%

N#Cc1ccc(C(=O)N/N=C/c2ccc3c(c2)no[n+]3[O-])cc1
inhibition of growth at 10 µg/mL (Trypanosoma cruzi [1]): 8% | inhibition of growth at 20 µg/mL (Trypanosoma cruzi [2]): 39% | inhibition of growth at 50 µg/mL (Trypanosoma cruzi [3]): 44%

O=C(N/N=C/c1ccc2c(c1)no[n+]2[O-])c1ccc(O)cc1
inhibition of growth at 10 µg/mL (Trypanosoma cruzi [1]): 0% | inhibition of growth at 20 µg/mL (Trypanosoma cruzi [2]): 3% | inhibition of growth at 50 µg/mL (Trypanosoma cruzi [3]): 47%

O=C(N/N=C/c1ccc2c(c1)no[n+]2[O-])c1ccc(F)cc1
inhibition of growth at 10 µg/mL (Trypanosoma cruzi [1]): 45% | inhibition of growth at 20 µg/mL (Trypanosoma cruzi [2]): 79% | inhibition of growth at 50 µg/mL (Trypanosoma cruzi [3]): 78%

O=C(N/N=C/c1ccc2c(c1)no[n+]2[O-])c1ccc(I)cc1
inhibition of growth at 10 µg/mL (Trypanosoma cruzi [1]): 54% | inhibition of growth at 20 µg/mL (Trypanosoma cruzi [2]): 81% | inhibition of growth at 50 µg/mL (Trypanosoma cruzi [3]): 60%

O=C(N/N=C/c1ccc2c(c1)no[n+]2[O-])c1ccc(C(F)(F)F)cc1
inhibition of growth at 10 µg/mL (Trypanosoma cruzi [1]): 65% | inhibition of growth at 20 µg/mL (Trypanosoma cruzi [2]): 86% | inhibition of growth at 50 µg/mL (Trypanosoma cruzi [3]): 82% | Activity [4]: Non-toxic

COc1ccc(C(=O)N/N=C/c2ccc3c(c2)no[n+]3[O-])cc1
inhibition of growth at 10 µg/mL (Trypanosoma cruzi [1]): 36% | inhibition of growth at 20 µg/mL (Trypanosoma cruzi [2]): 69% | inhibition of growth at 50 µg/mL (Trypanosoma cruzi [3]): 76%

CN(C)c1ccc(C(=O)N/N=C/c2ccc3c(c2)no[n+]3[O-])cc1
inhibition of growth at 10 µg/mL (Trypanosoma cruzi [1]): 4% | inhibition of growth at 20 µg/mL (Trypanosoma cruzi [2]): 7% | inhibition of growth at 50 µg/mL (Trypanosoma cruzi [3]): 10%

NS(=O)(=O)c1ccc(C(=O)N/N=C/c2ccc3c(c2)no[n+]3[O-])cc1
inhibition of growth at 10 µg/mL (Trypanosoma cruzi [1]): 5% | inhibition of growth at 20 µg/mL (Trypanosoma cruzi [2]): 9% | inhibition of growth at 50 µg/mL (Trypanosoma cruzi [3]): 12%

O=C(Cn1ccnc1[N+](=O)[O-])NCc1ccccc1 [BENZNIDAZOLE]
inhibition of growth at 10 µg/mL (Trypanosoma cruzi [1]): 44% | inhibition of growth at 20 µg/mL (Trypanosoma cruzi [2]): 66% | inhibition of growth at 50 µg/mL (Trypanosoma cruzi [3]): 77%
